Measurements: ChEMBL document CHEMBL4507270 (2021)
The source made the active and inactive calls. The calls are words filed in the database; no cut-off is given here.

Experiments:
[1] = biological target: Rhodopsin kinase GRK7 (Homo sapiens) (UniProt Q8WTQ7)
[2] = biological target: Platelet-derived growth factor receptor alpha (Homo sapiens) (UniProt P16234)
[3] = biological target: Phosphatidylinositol 5-phosphate 4-kinase type-2 gamma (Homo sapiens) (UniProt Q8TBX8)
[4] = biological target: Death-associated protein kinase 1 (Homo sapiens) (UniProt P53355)
[5] = biological target: Tyrosine-protein kinase Blk (Homo sapiens) (UniProt P51451)
[6] = biological target: Phosphorylase b kinase gamma catalytic chain, skeletal muscle/heart isoform (Homo sapiens) (UniProt Q16816)
[7] = NanoBRET assay (SGC Frankfurt) with LYN; conditions: Homo sapiens
[8] = biological target: Serine/threonine-protein kinase Sgk1 (Homo sapiens) (UniProt O00141)
[9] = biological target: Muscarinic acetylcholine receptor M1 (Homo sapiens) (UniProt P11229); conditions: Compound concentration 10.0 uM
[10] = biological target: Mitogen-activated protein kinase 9 (Homo sapiens) (UniProt P45984)
[11] = biological target: Activated CDC42 kinase 1 (Homo sapiens) (UniProt Q07912)
[12] = biological target: Mitogen-activated protein kinase kinase kinase 13 (Homo sapiens) (UniProt O43283)
[13] = biological target: RAF proto-oncogene serine/threonine-protein kinase (Homo sapiens) (UniProt P04049)
[14] = biological target: MAP/microtubule affinity-regulating kinase 4 (Homo sapiens) (UniProt Q96L34)
[15] = biological target: Serine/threonine-protein kinase SBK1 (Homo sapiens) (UniProt Q52WX2)
[16] = biological target: T1, Epithelial discoidin domain-containing receptor 1 (Homo sapiens, UniProt Q08345)
[17] = biological target: Serine/threonine-protein kinase ULK3 (Homo sapiens) (UniProt Q6PHR2)
[18] = biological target: Serine/threonine-protein kinase D1 (Homo sapiens) (UniProt Q15139)
[19] = biological target: Phosphatidylinositol 4,5-bisphosphate 3-kinase catalytic subunit beta isoform (Homo sapiens) (UniProt P42338)
[20] = tested on: Tyrosine-protein kinase ABL1 (Homo sapiens), P00519 [T315I]
[21] = biological target: T1, Epithelial discoidin domain-containing receptor 1; assay: NanoBRET assay (SGC Frankfurt) with DDR1
[22] = biological target: Myosin light chain kinase 2, skeletal/cardiac muscle (Homo sapiens) (UniProt Q9H1R3)
[23] = biological target: Mast/stem cell growth factor receptor Kit (Homo sapiens) (UniProt P10721)
[24] = biological target: Protein kinase C theta type (Homo sapiens) (UniProt Q04759)
[25] = biological target: Non-receptor tyrosine-protein kinase TYK2 (Homo sapiens) (UniProt P29597)
[26] = biological target: Serine/threonine-protein kinase PLK4 (Homo sapiens) (UniProt O00444)
[27] = biological target: Sigma intracellular receptor 2 (Homo sapiens, UniProt Q5BJF2); assay: GPCRScan assay: inhibition of Sigma 2; set-up: radioligand conc. used [nm] 5.0, parental cells HEKT
[28] = biological target: Activin receptor type-1-like (Homo sapiens) (UniProt P37023)
[29] = biological target: Mitotic checkpoint serine/threonine-protein kinase BUB1 (Homo sapiens) (UniProt O43683)
[30] = biological target: Serine/threonine-protein kinase Nek1 (Homo sapiens) (UniProt Q96PY6)
[31] = biological target: Aurora kinase C (Homo sapiens) (UniProt Q9UQB9)
[32] = biological target: Serine/threonine-protein kinase RIO1 (Homo sapiens) (UniProt Q9BRS2)
[33] = tested on: Proto-oncogene tyrosine-protein kinase receptor Ret (Homo sapiens), P07949 [V804L]
[34] = biological target: Ephrin type-B receptor 4 (Homo sapiens) (UniProt P54760)
[35] = biological target: Ribosomal protein S6 kinase alpha-4 (Homo sapiens) (UniProt O75676)
[36] = tested on: Tyrosine-protein kinase ABL1 (Homo sapiens), P00519 [F317I]
[37] = biological target: Serine/threonine-protein kinase Nek3 (Homo sapiens) (UniProt P51956)
[38] = biological target: Dual specificity protein kinase CLK4 (Homo sapiens) (UniProt Q9HAZ1)
[39] = biological target: SRSF protein kinase 3 (Homo sapiens) (UniProt Q9UPE1)
[40] = biological target: Mast/stem cell growth factor receptor Kit (Homo sapiens) (UniProt P10721); remark: listed apart in the source
[41] = biological target: Dual serine/threonine and tyrosine protein kinase (Homo sapiens) (UniProt Q6XUX3)
[42] = biological target: Receptor tyrosine-protein kinase erbB-3 (Homo sapiens) (UniProt P21860)
[43] = biological target: Tyrosine-protein kinase JAK1 (Homo sapiens) (UniProt P23458)
[44] = biological target: Receptor-interacting serine/threonine-protein kinase 2 (Homo sapiens) (UniProt O43353)
[45] = biological target: Proto-oncogene tyrosine-protein kinase Src (Homo sapiens) (UniProt P12931)
[46] = Compound concentration 1000.0 nM
[47] = Compound concentration 100.0 nM

Sequence of Mast/stem cell growth factor receptor Kit (Homo sapiens) (P10721 whole entry): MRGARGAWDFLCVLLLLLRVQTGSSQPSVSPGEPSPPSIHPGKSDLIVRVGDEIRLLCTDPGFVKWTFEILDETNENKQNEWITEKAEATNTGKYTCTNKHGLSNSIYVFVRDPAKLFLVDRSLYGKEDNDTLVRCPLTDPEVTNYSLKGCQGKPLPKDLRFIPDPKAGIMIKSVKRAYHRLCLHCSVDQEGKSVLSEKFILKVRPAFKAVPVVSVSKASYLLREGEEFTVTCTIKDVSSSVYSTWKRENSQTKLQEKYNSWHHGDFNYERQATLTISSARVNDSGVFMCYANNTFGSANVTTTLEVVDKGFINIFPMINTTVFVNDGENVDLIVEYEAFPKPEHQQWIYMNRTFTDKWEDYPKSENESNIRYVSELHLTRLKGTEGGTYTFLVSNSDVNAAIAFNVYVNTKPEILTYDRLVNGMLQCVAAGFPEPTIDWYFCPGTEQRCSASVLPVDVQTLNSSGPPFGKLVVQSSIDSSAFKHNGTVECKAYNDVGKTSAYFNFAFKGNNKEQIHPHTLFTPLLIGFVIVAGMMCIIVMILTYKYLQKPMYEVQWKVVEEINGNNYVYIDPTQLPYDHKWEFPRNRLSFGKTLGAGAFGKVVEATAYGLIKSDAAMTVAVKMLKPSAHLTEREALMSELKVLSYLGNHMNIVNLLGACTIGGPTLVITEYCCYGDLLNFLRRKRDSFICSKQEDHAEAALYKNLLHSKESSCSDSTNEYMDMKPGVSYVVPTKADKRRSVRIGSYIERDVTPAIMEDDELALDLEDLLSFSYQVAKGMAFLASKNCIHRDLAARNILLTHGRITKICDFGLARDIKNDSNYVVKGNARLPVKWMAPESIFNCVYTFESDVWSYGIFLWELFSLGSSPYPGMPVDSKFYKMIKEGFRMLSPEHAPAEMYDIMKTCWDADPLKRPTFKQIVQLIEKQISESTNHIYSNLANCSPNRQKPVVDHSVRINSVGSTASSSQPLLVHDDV
T1 sequence (Q08345 whole entry, the tested form may be a part): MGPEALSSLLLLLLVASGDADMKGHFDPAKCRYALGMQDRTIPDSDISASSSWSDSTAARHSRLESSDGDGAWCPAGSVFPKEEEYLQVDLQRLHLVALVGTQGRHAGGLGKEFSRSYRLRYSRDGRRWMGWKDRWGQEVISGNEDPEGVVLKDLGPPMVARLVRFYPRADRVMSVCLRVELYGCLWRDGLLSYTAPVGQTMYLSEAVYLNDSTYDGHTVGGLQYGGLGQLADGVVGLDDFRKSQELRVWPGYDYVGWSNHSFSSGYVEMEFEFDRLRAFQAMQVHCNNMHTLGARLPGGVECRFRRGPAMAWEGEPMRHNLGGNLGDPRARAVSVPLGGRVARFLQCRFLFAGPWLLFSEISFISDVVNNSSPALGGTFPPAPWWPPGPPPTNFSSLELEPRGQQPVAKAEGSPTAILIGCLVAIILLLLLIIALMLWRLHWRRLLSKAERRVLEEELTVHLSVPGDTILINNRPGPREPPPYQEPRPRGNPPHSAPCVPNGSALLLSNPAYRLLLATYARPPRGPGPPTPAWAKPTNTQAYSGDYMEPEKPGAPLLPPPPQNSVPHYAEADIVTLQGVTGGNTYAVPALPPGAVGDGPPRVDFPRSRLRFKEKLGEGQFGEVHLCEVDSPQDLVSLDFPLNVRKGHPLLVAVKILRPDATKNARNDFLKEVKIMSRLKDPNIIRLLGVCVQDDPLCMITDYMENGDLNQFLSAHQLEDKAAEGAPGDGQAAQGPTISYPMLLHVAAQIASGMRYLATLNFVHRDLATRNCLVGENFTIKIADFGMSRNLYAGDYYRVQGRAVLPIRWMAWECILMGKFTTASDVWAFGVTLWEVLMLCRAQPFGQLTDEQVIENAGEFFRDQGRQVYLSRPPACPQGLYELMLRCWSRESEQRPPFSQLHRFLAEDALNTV
Sequence of Sigma intracellular receptor 2 (Q5BJF2 whole entry): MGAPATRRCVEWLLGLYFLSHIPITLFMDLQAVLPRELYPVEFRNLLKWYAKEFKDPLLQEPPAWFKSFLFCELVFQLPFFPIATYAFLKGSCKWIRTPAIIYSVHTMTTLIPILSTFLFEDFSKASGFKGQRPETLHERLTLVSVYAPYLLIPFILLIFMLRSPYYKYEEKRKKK
Sequence of Aurora kinase C (Homo sapiens) (Q9UQB9 whole entry): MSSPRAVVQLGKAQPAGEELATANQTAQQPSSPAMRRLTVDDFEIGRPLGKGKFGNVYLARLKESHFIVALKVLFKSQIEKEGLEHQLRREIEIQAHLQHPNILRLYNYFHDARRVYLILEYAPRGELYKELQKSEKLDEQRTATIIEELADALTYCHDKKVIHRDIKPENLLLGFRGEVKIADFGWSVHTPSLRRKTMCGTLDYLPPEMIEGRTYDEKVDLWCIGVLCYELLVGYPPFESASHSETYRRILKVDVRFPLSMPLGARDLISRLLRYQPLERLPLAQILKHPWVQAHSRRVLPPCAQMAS
Sequence of Receptor-interacting serine/threonine-protein kinase 2 (Homo sapiens) (O43353 whole entry): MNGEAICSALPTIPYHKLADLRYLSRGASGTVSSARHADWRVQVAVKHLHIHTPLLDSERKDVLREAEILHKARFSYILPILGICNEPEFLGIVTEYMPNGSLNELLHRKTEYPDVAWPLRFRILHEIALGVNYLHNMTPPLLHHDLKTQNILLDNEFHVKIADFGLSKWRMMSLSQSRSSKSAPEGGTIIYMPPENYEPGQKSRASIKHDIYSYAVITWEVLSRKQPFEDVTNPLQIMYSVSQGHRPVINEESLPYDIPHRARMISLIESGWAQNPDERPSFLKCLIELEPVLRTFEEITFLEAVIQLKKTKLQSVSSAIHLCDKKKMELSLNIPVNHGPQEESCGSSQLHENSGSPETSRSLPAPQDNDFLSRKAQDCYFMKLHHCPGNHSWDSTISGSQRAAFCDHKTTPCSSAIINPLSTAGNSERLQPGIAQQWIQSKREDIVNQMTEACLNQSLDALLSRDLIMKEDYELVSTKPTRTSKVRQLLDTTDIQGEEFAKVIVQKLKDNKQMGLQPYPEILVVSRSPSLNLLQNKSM
Sequence of MAP/microtubule affinity-regulating kinase 4 (Homo sapiens) (Q96L34 whole entry): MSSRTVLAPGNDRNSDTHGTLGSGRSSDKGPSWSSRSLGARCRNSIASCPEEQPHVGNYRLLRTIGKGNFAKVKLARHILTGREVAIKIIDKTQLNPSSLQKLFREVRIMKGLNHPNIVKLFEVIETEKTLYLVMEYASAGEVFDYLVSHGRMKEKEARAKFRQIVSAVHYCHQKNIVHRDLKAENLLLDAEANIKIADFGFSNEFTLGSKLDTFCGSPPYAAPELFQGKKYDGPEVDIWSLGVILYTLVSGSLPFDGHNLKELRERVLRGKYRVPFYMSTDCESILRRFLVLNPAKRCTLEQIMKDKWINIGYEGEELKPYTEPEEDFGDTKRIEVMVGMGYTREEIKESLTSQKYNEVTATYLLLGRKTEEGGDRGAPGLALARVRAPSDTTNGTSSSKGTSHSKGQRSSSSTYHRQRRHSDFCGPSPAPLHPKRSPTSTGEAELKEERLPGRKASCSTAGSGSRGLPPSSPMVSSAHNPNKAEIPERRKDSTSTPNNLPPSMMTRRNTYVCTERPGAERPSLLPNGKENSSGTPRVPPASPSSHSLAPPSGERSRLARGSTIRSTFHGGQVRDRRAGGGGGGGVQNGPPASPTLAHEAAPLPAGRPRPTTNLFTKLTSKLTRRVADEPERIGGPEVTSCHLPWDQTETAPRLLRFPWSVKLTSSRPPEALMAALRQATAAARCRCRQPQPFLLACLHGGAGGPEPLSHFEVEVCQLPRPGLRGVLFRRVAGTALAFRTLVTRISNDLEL
Sequence of Activin receptor type-1-like (Homo sapiens) (P37023 whole entry): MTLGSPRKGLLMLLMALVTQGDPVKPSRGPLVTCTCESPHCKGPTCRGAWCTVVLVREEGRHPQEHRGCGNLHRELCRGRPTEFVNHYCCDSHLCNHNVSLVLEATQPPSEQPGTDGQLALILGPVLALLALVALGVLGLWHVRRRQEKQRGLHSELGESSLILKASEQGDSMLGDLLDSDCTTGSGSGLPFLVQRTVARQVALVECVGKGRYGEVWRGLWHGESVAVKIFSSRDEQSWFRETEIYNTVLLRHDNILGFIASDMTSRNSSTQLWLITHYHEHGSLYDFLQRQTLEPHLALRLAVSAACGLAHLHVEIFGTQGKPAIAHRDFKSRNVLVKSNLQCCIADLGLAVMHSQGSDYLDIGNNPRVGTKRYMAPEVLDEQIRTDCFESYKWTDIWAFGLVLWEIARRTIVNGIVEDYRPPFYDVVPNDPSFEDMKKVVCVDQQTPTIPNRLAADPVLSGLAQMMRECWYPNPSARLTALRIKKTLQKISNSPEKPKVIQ
Sequence of Phosphatidylinositol 5-phosphate 4-kinase type-2 gamma (Homo sapiens) (Q8TBX8 whole entry): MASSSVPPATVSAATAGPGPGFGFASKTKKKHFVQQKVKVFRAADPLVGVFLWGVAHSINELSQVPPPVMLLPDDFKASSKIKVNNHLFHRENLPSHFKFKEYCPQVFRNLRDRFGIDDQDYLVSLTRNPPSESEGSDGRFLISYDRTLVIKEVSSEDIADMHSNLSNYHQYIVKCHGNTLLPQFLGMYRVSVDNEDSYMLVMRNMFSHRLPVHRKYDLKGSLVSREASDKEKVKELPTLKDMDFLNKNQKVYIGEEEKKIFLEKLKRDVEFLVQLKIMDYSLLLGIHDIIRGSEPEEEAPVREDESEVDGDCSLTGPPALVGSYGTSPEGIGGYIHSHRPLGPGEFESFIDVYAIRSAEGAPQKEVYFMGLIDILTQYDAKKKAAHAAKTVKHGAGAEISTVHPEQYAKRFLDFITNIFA
Sequence of Serine/threonine-protein kinase Sgk1 (Homo sapiens) (O00141 whole entry): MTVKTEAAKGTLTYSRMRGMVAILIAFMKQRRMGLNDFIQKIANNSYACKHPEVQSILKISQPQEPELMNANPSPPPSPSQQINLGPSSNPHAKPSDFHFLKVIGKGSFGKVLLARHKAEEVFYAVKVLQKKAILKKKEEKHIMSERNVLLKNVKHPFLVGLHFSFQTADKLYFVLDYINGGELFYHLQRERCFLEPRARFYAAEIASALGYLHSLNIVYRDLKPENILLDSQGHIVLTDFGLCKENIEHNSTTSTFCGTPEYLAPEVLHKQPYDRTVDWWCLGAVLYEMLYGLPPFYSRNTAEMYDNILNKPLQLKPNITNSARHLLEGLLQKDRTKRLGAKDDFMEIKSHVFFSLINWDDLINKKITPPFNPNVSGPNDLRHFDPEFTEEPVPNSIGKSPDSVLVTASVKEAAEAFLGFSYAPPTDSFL

Cc1cc(NC(=O)c2cccc(S(F)(F)(F)(F)F)c2)cc(-n2ccn3nc(-c4cccnc4)cc23)c1 [BAY-309]
residual activity [1, 46]: 100%
residual activity [2, 46]: 100%
residual activity [3, 46]: 99.1%
residual activity [4, 46]: 100%
residual activity [5, 46]: 100%
residual activity [6, 46]: 100%
EC50 [7]: > 50000 nM (not active)
IC50 [7]: 7000 nM (not active)
residual activity [8, 46]: 81.3%
inhibition [9]: 9.28%
residual activity [10, 46]: 76.9%
residual activity [11, 46]: 100%
residual activity [12, 46]: 100%
residual activity [13, 46]: 29.4%
residual activity [14, 46]: 84.8%
residual activity [15, 46]: 100%
residual activity [16, 46]: 0%
residual activity [17, 46]: 75.2%
residual activity [18, 46]: 100%
residual activity [19, 46]: 100%
residual activity [20, 46]: 60.8%
EC50 [21]: 200 nM (not active)
IC50 [21]: 340 nM (not active)
residual activity [22, 46]: 100%
residual activity [23, 46]: 70.3%
residual activity [24, 46]: 60.3%
residual activity [25, 46]: 100%
residual activity [26, 46]: 96.9%
Ki ([27]; read-out: Ki): 796 nM
Ki ([27]; read-out: pKi (converted)): 789 nM
residual activity [28, 46]: 100%
residual activity [29, 46]: 100%
residual activity [30, 46]: 100%
residual activity [31, 46]: 86.7%
residual activity [32, 46]: 100%
residual activity [33, 46]: 100%
residual activity [34, 46]: 100%
residual activity [35, 46]: 100%
residual activity [36, 46]: 100%
residual activity [37, 46]: 50.5%
residual activity [38, 46]: 100%
residual activity [39, 46]: 100%
residual activity [40, 46]: 89.5%
residual activity [41, 46]: 72.8%
residual activity [42, 46]: 49.4%
residual activity [43, 46]: 28.7%
residual activity [44, 46]: 88.6%
residual activity [45, 46]: 100%

Cc1cc(C)c(-n2ccn3nc(-c4cccnc4)cc23)cc1NC(=O)c1cc(C#N)cc(S(F)(F)(F)(F)F)c1 [BAY-826]
residual activity [1, 47]: 65.6%
residual activity [2, 47]: 67.4%
residual activity [3, 47]: 89.9%
residual activity [4, 47]: 94.1%
residual activity [5, 47]: 100%
residual activity [6, 47]: 80.1%
EC50 [7]: 7400 nM (not active)
IC50 [7]: 8200 nM (not active)
residual activity [8, 47]: 100%
inhibition [9]: 24.8%
residual activity [10, 47]: 66.1%
residual activity [11, 47]: 83.6%
residual activity [12, 47]: 97.9%
residual activity [13, 47]: 83.8%
residual activity [14, 47]: 92.4%
residual activity [15, 47]: 82.2%
residual activity [16, 47]: 0.1%
residual activity [17, 47]: 100%
residual activity [18, 47]: 81.2%
residual activity [19, 47]: 89.1%
residual activity [20, 47]: 83.8%
EC50 [21]: 1.5 nM (active)
IC50 [21]: 0.9 nM (active)
residual activity [22, 47]: 100%
residual activity [23, 47]: 76.8%
residual activity [24, 47]: 100%
residual activity [25, 47]: 87.3%
residual activity [26, 47]: 64.1%
Ki ([27]; read-out: Ki): 984 nM
Ki ([27]; read-out: pKi (converted)): 955 nM
residual activity [28, 47]: 78.9%
residual activity [29, 47]: 99.8%
residual activity [30, 47]: 100%
residual activity [31, 47]: 100%
residual activity [32, 47]: 100%
residual activity [33, 47]: 93.6%
residual activity [34, 47]: 99.6%
residual activity [35, 47]: 100%
residual activity [36, 47]: 65.8%
residual activity [37, 47]: 70.7%
residual activity [38, 47]: 93.3%
residual activity [39, 47]: 100%
residual activity [40, 47]: 44.5%
residual activity [41, 47]: 71.1%
residual activity [42, 47]: 96.2%
residual activity [43, 47]: 93.1%
residual activity [44, 47]: 84.5%
residual activity [45, 47]: 92.6%
